Columns and labels:
[1] = test system: chloroquine-resistant and MDR clone Dd2 of P. falciparum; assay: Antimalarial activity assay, SYBR Green I fluorescence-based method; format: cell-based, Plasmodium falciparum
Description: (§1) An antimalarial activity assay was carried out at the Oregon Translational Research and Drug Development Institute (OTRADI). Two strains of P. falciparum were used. The chloroquine-sensitive clone D6, and chloroquine-resistant and MDR clone Dd2 was obtained from the Malaria Research and Reference Reagent Resource Center (MR4) (Manassas, Va.). The parasites were cultured according to the method of Trager and Jensen (Trager and Jensen, Science, 1976, 193:673-675), with minor modifications. The cultures were maintained in human erythrocytes (Lampire Biological Laboratories, Pipersville, Pa.), suspended at 2% hematocrit in RPMI 1640 (Sigma) containing 0.5% Albumax (Invitrogen), […] hypoxanthine (Lancaster), and 50 μg/L gentamicin (Invitrogen), and incubated at 37° C. under a gas mixture of 5% O2, 5% CO2, and 90% N2. In vitro antimalarial activity was determined by a SYBR Green I fluorescence-based method described previously by Smilkstein et al. (Smilkstein et al., Antimicrob. Agents Chemother., 2004, 48:1803-1806). Frozen stock solutions of each test drug (1 mM in DMSO) were thawed, warmed to 37° C., and mixed thoroughly prior to use. Drug solutions were serially diluted with culture medium, and distributed to asynchronous parasite cultures on 96-well plates in quadruplicate in a total volume of 100 μL to achieve 0.2% parasitemia with a 2% hematocrit in a total volume of 100 μL. Automated pipeting and dilution was carried using programmable Precision XS (Bio-Tek, Winooski, Vt.) and Sciclone ALH3000 (Caliper, Hopkinton, Mass.) robotic stations. The plates then were incubated for 72 hours at temperature and gas conditions described above. After incubation, 100 μL of lysis buffer with SYBR Green I was added to each well. The plates were incubated at room temperature for 1 h and then placed in a 96-well fluorescence plate reader (Synergy4, BioTek, Winooski, Vt.) with excitation and emission wavelength at 485 nm and 528 nm, respectively, for measurement of fluorescence. The 50% inhibitory concentration (IC50) was determined by non-linear regression analysis of logistic dose-response curves (GraphPad Prism software).

[2] = test system: chloroquine-sensitive clone D6 of P. falciparum; assay: as above; format: cell-based, Plasmodium falciparum; details: Plasmodium falciparum
Description: as §1

Mycobacterium smegmatis = assay: Antibacterial agar diffusion assay (Example 2); format: cell-based
Description: (§2) Antibacterial activity of pactamycin and its analogues was determined by an agar diffusion assay. E. coli, Pseudomonas aeruginosa, Mycobacterium smegmatis, and Staphylococcus aureus were streaked on nutrient agar (Difco) and grown overnight at 37° C. Colonies were transferred to nutrient broth and incubated at 37° C. for 24 hours. Turbidity of the inoculum was measured to a proper density at 600 nm (BioRad, SmartSpec 3000). For plate preparation, inoculum (500 μL) was mixed thoroughly with warm nutrient agar (50 mL) and poured to 25 mL square plates. The agar plates were allowed to solidify and dry for 30 minutes before assay. Sterile blank paper disks (Becton-Dickinson) were impregnated with pactamycin and its analogues (20 μL) at various concentrations and dried at room temperature. The disks were placed onto inoculated agar plates and incubated at 37° C. for 24 hours. In order to produce a contrast background of the inhibition zone, 0.25% MTT developing dye (1 mL) was added over the plates.

Pseudomonas aeruginosa [3] = assay: Antibacterial agar diffusion assay (Example 2); format: cell-based
Description: as §2

Staphylococcus aureus [4] = assay: Antibacterial agar diffusion assay (Example 2); format: cell-based
Description: as §2

E. coli = assay: Antibacterial agar diffusion assay (Example 2); format: cell-based, Escherichia coli
Description: as §2

[5] = test system: Gram-positive and Gram-negative bacteria (S. aureus, M. smegmatis, P. aeruginosa, E. coli); assay: Antibacterial dose-response studies, broth microdilution (Example 2); format: cell-based; details: 0.01 (or 0.1)-100 μM
Description: Dose response assays were performed at a 100-μL volume in 200 μL Eppendorf tubes. The compounds were diluted and added to the bacterial suspension at final concentrations of 0.01 (or 0.1)-100 μM. After incubation at 37° C. for 24 hours, turbidity of cultures was measured at 600 nm (Biorad, SmartSpec 3000). Each assay was done in triplicate.
To further evaluate and compare the in vitro efficacy of de-6MSA-pactamycin with that of pactamycin, dose-response studies were done using a broth microdilution method with 0.01 (or 0.1)-100 μM concentrations of pactamycin and de-6MSA-pactamycin (FIGS. 16A-16D). […] Both pactamycin and de-6MSA-pactamycin were maximally active between 1 and 10 μM and effective against both Gram-positive and Gram-negative bacteria.

[6] = test system: human colon cancer HT-29 cells; assay: MTT cell viability assay in HT-29 cells; format: cell-based
Description: The MTT assay was carried out as described by Mosmann (J. Immunol. Methods, 1983, 65:55). Briefly, human colon cancer HT-29 cells (ATCC) were seeded in 96-well plates at a density of 1.0×10^4 cells per well. The growth medium consisted of phenol red-free RPMI 1640 (Invitrogen, Carlsbad, Calif.) containing 10% fetal bovine serum (Invitrogen, Carlsbad, Calif.), glutamine (2 mM), penicillin (100 units/mL) and streptomycin (100 μg/mL). After a 24-hour incubation at 37° C. in a humidified atmosphere of 5% CO2, the medium was removed and replaced with fresh RPMI 1640 medium (with or without 10% FBS and no penicillin or streptomycin). Increasing concentrations of pactamycin, pactamycate, de-6MSA pactamycin, or de-6MSA-pactamycate dissolved in DMSO were added to cells at a volume of 0.2 mL/well. DMSO was added to control media not to exceed a final concentration of 1%. Following a 24-hour incubation, the medium was aspirated from each well and replaced with fresh RPMI medium with 10% FBS and MTT (0.5 mg/mL). […] The plate was shaken for 10 minutes before reading the absorbance at 570 nm using a microplate reader (SpectraMax 250, Molecular Devices, Sunnyvale, Calif., USA). The viability of treated cells was expressed as the percentage of control cells. […]

[7] = test system: HT-29 human colon carcinoma cells; assay: SRB growth inhibition assay in HT-29 cells; format: cell-based; details: HT-29 cells, 24 hours
Description: Growth inhibition of HT-29 cells induced by the test compounds was also evaluated by the SRB assay, which is based on measuring total biomass by staining the cellular proteins with sulforhodamine B (Skehan et al., J. Natl. Cancer Inst., 1990, 82:1107). After treating the HT-29 cells with the compounds for 24 hours, the adherent cells grown in 96-well plates were fixed with 10% trichloroacetic acid and incubated for 1 hour at 4° C. The plates were washed five times with tap water, dried, and stained with SRB solution (0.4% wt/vol in 1% acetic acid) for 30 minutes at room temperature. The plates were again washed and dried before adding 10 mM Tris base to solubilize the bound stain. Optical densities (OD) were read at 564 nm in SpectraMax 250 and cell growth of treated cells was expressed as the percentage of control cells, ODtest/ODcontrol×100%.

Bacillus subtilis = assay: Antibacterial micro-dilution assay (Example 1); format: cell-based; details: 24 hours, read-out: IC50 against Bacillus subtilis
Description: (§3) The antibacterial activity of pactamycin and its analogs was determined by agar diffusion and micro-dilution assays. E. coli, P. aeruginosa, B. subtilis or M. smegmatis, and S. aureus were streaked on nutrient agar (Difco or Beckton-Dickinson) and grown overnight at 37° C. Colonies were transferred to nutrient broth and incubated at 37° C. for 24 hours. Turbidity of the inoculum was measured to a proper density at 600 nm (BioRad, SmartSpec 3000). For plate preparation, inoculum (500 μL) was mixed thoroughly with warm nutrient agar (50 mL) and poured to 25 mL square plates. The agar plates were allowed to solidify and dry for 30 min before assay. Sterile blank paper disks (Becton-Dickinson) were impregnated with pactamycin and its analogs (20 μL) at various concentrations and dried at room temperature. The disks were placed onto inoculated agar plates and incubated at 37° C. for 24 hours. In order to produce a contrast background of the inhibition zone, 0.25% MTT developing dye (1 mL) was added over the plates.
(§4) Micro-dilution assays were performed in 96-well plates. The compounds were serially diluted and added to the bacterial suspension at final concentrations of 1 mM-10 nM, or 0.5 mM-10 nM. After incubation at 37° C. for 24 hours, 0.25% MTT developing dye (50 μL) was added. Each assay was done in triplicate.

Escherichia coli = assay: Antibacterial micro-dilution assay (Example 1); format: cell-based; details: 24 hours, read-out: IC50 against Escherichia coli
Description: as §3, §4

Pseudomonas aeruginosa [8] = assay: Antibacterial micro-dilution assay (Example 1); format: cell-based; details: 24 hours, read-out: IC50 against Pseudomonas aeruginosa
Description: as §3, §4

Staphylococcus aureus [9] = assay: Antibacterial micro-dilution assay (Example 1); format: cell-based; details: 24 hours, read-out: IC50 against Staphylococcus aureus
Description: as §3, §4

[10] = test system: Gram-positive and Gram-negative bacteria; assay: Antibacterial agar diffusion and micro-dilution assays, all tested strains (Example 1); format: cell-based, S. aureus, B. subtilis, P. aeruginosa, E. coli; details: at the concentrations used
Description: as §3, §4

[11] = Cytotoxicity assay (WST-8) against HCT116 cells; format: cell-based; details: human, HCT116 colorectal carcinoma cells, estimated
Description: HCT116 (colorectal carcinoma) cells were seeded onto a 96-well plate at 10,000 cells per well. Cells were treated with either 5, 50, 500 or 5000 nM TM-025, TM-026, N-acetyl-glucosaminyl-3-aminoacetophenone or 5, 25, 50, 100 nM pactamycin in triplicate for 48 hours. For the narrow range concentration assays, cells were treated with either 0.5, 1, 2 or 4 μM TM-025; 1, 2, 3 or 5 μM TM-026; 0.5, 2, 5 or 7 μM N-acetylglucosaminyl-3-aminoacetophenone or 12.5, 25, 50, 100 nM pactamycin in triplicate for 24 or 48 hours. WST-8 [2-(2-methoxy-4-nitrophenyl)-3-[…], monosodium salt] (Dojindo, Rockville, Md.) was added to each well to give an orange-colored formazan product, which is soluble in tissue culture medium. Absorbance was measured at 450 nm. Percent of viable cells was calculated relative to the “No Treatment” and “Solvent Only” wells.

| SMILES | EC50 ([1]; Plasmodium falciparum, Example 2, FIG. 14, multi-drug resistant Dd2, read-out: EC50 against the Dd2 strain) | times more effective than chloroquine against Dd2 ([1]; relative to chloroquine) | EC50 ([2]; D6, Example 2, FIG. 14, read-out: EC50 against the D6 strain) | antibacterial activity, growth of Mycobacterium smegmatis (Mycobacterium smegmatis) | antibacterial activity, growth of Pseudomonas aeruginosa (Pseudomonas aeruginosa [3]) | antibacterial activity, growth of Staphylococcus aureus (Staphylococcus aureus [4]) | antibacterial activity, growth of E. coli (E. coli) | biological activity compared with pactamycin in dose-response studies [5] | cytotoxicity profile (MTT-based assay) [6] | cytotoxicity profile (SRB-based assay) [7] | IC50 ([1]; Plasmodium falciparum, DD2, 72 h, P. falciparum Dd2, 72 hours, read-out: Antimalarial IC50 (Dd2)) | IC90 ([1]; Plasmodium falciparum, DD2, 72 h, P. falciparum Dd2, 72 hours, read-out: Antimalarial IC90 (Dd2)) | IC50 ([2]; D6, 72 h, P. falciparum D6, 72 hours, read-out: Antimalarial IC50 (D6)) | IC90 ([2]; D6, 72 h, P. falciparum D6, 72 hours, read-out: Antimalarial IC90 (D6)) | IC50 (Bacillus subtilis) | IC50 (Escherichia coli) | IC50 (Pseudomonas aeruginosa [8]) | IC50 (Staphylococcus aureus [9]) | antibacterial activity in agar diffusion and micro-dilution assays (in words) [10] | IC50 [11] |
| --- | --- | --- | --- | --- | --- | --- | --- | --- | --- | --- | --- | --- | --- | --- | --- | --- | --- | --- | --- | --- |
| CC(=O)c1cccc(N[C@H]2[C@H](N)[C@@](NC(=O)N(C)C)([C@H](C)O)[C@@](C)(O)[C@@]2(O)CO)c1 [de-6MSA-pactamycin] | 9 nM | 10 times | 7 nM | inhibited the growth | inhibited the growth | inhibited the growth | inhibited the growth | equivalent biological activity with the parent molecule | equivalent cytotoxicity profiles with the respective parent compounds | equivalent cytotoxicity profiles with the respective parent compounds | – | – | – | – | – | – | – | – | – | – |
| CC(=O)c1cccc(N[C@H]2[C@H](N)[C@@](NC(=O)N(C)C)([C@H](C)O)[C@@](C)(O)[C@@]2(O)COC(=O)c2c(C)cccc2O)c1 [pactamycin] | – | – | – | inhibited the growth | inhibited the growth | inhibited the growth | inhibited the growth | – | – | – | ~21 nM | 187 nM | ~24 nM | 124 nM | ~500 µM | ~100 µM | ~500 µM | ~10 µM | strong antibacterial activity | ~100 nM |
